Laboratory results from ChEMBL document CHEMBL5150033, “Synthesis, evaluation and mechanism exploration of 2-(N-(3-nitrophenyl)-N-phenylsulfonyl)aminoacetohydroxamic acids as novel urease inhibitors” (Bioorg Med Chem Lett, 2022).
Activity calls are given as the source filed them. No cut-off for these calls is given here.

Legend:
[1] = tested on: K562; test: Antiproliferative activity against human K562 cells assessed as reduction in cell viability at 250 ug/ml by MTT assay relative to control; format: functional; details: dose 250 µg/ml
[2] = tested on: HepG2; test: Antiproliferative activity against human HepG2 cells assessed as reduction in cell viability at 250 ug/ml by MTT assay relative to control; format: functional; details: dose 250 µg/ml
[3] = biological target: T1, Urease subunit alpha/Urease subunit beta (Helicobacter pylori (strain ATCC 700392 / 26695) (Campylobacterpylori), UniProt P69996); test: Inhibition of Helicobacter pylori urease; format: protein-complex assay
[4] = tested on: SGC-7901; test: Antiproliferative activity against human SGC-7901 cells assessed as reduction in cell viability at 250 ug/ml by MTT assay relative to control; format: functional; details: dose 250 µg/ml
[5] = biological target: T2, Urease subunit alpha/Urease subunit beta (Helicobacter pylori (strain ATCC 700392 / 26695) (Campylobacterpylori)) (UniProt P69996+P14916); test: Inhibition of Helicobacter pyroli urease at 100 ug/ml […]; format: protein-complex assay; details: dose 100.0 µg/ml, time <= 120.0 min, TDE = time-dependent effect
[6] = biological target: T1, Urease subunit alpha/Urease subunit beta; test: Binding affinity to Helicobacter pyroli urease assessed as dissociation constant by surface plasmon resonance assay; format: protein-complex assay
[7] = biological target: T2, Urease subunit alpha/Urease subunit beta (Helicobacter pylori (strain ATCC 700392 / 26695) (Campylobacterpylori)); test: Inhibition of Helicobacter pyroli urease assessed as maximum inhibition at 100 ug/ml measured after 50 mins […]; format: protein-complex assay; details: dose 100.0 µg/ml
[8] = biological target: T1, Urease subunit alpha/Urease subunit beta; test: Mixed type inhibition of Helicobacter pyroli urease assessed as dissociation constant for EI complex by microplate reader analysis; format: protein-complex assay
[9] = biological target: T1, Urease subunit alpha/Urease subunit beta; test: Mixed type inhibition of Helicobacter pyroli urease assessed as dissociation constant for ESI complex by microplate reader analysis; format: protein-complex assay
[10] = biological target: T2, Urease subunit alpha/Urease subunit beta (Helicobacter pylori (strain ATCC 700392 / 26695) (Campylobacterpylori)); test: Potency index, ratio of acetohydroxamic acid IC50 to test compound IC50 for inhibition of Helicobacter pylori urease; format: protein-complex assay

T2 sequence (P14916 whole entry, looked up): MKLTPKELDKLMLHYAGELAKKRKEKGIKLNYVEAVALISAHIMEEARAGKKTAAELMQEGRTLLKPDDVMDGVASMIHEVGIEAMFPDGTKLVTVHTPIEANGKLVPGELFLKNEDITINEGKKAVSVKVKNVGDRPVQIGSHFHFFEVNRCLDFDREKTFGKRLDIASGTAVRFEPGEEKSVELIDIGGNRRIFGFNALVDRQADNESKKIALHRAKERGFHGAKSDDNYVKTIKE
T2 sequence (P69996 whole entry, looked up): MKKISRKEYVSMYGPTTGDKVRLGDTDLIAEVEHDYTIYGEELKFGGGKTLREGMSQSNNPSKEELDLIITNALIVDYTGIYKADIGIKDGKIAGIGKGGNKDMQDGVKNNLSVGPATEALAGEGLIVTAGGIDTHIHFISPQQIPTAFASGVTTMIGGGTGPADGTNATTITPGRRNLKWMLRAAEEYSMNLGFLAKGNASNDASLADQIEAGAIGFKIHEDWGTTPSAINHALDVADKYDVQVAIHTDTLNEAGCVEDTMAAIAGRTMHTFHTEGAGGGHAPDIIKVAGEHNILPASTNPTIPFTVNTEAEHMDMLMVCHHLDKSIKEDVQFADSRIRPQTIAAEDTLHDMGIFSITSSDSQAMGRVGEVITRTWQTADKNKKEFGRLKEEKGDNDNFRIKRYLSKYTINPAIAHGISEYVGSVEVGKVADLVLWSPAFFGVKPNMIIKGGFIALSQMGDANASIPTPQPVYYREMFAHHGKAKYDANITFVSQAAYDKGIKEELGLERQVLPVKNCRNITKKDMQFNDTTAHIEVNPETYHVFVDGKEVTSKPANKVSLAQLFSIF
T1 sequence (P69996 whole entry): as the sequence (P69996 whole entry, looked up) above
T1 sequence (P14916 whole entry, further chain): as the sequence (P14916 whole entry, looked up) above

Row | SMILES | Activity [1] [%] | Activity [2] [%] | IC50 [3] [µM] | Activity [4] [%] | inhibition [5] | Kd [6] [nM] | inhibition [7] | Ki [8] [nM] | Ki [9] [nM] | Ratio IC50 [10]
1 | O=C(CN(c1cccc([N+](=O)[O-])c1)S(=O)(=O)c1ccccc1F)NO | 87 | 80 | 6.9 | 92 | – | – | – | – | – | –
2 | Cc1ccccc1S(=O)(=O)N(CC(=O)NO)c1cccc([N+](=O)[O-])c1 | 90 | 87 | 7.1 | 90 | – | – | – | – | – | –
3 | CC(=O)NO [ACETOHYDROXAMIC ACID] | 64 | 76 | 26.3 | 72 | – | – | – | – | – | –
4 | Cc1ccc(S(=O)(=O)N(CC(=O)NO)c2cccc([N+](=O)[O-])c2)cc1 | 86 | 80 | 5.91 | 84 | – | – | – | – | – | –
5 | O=C(CN(c1cccc([N+](=O)[O-])c1)S(=O)(=O)c1cc(Cl)ccc1Cl)NO | 84 | 80 | 27.5 | 81 | – | – | – | – | – | –
6 | O=C(CN(c1cccc([N+](=O)[O-])c1)S(=O)(=O)c1ccccc1)NO | 76 | 83 | 2.41 | 79 | – | – | – | – | – | –
7 | O=C(CN(c1cccc([N+](=O)[O-])c1)S(=O)(=O)c1ccc(Cl)cc1)NO | 88 | 86 | 1.75 | 89 | – | – | – | – | – | –
8 | O=C(CN(c1cccc([N+](=O)[O-])c1)S(=O)(=O)c1ccc(Br)cc1)NO | 87 | 91 | 0.13 | 86 | Tde | 0.34 | Active | 65 | 1200 | 200
9 | O=C(CN(c1cccc([N+](=O)[O-])c1)S(=O)(=O)c1ccccc1Cl)NO | 91 | 93 | 22 | 90 | – | – | – | – | – | –
10 | O=C(CN(c1cccc([N+](=O)[O-])c1)S(=O)(=O)c1cc(F)ccc1F)NO | 88 | 89 | 16.4 | 92 | – | – | – | – | – | –
11 | Cc1cc(C)c(S(=O)(=O)N(CC(=O)NO)c2cccc([N+](=O)[O-])c2)c(C)c1 | 94 | 87 | 96.4 | 85 | – | – | – | – | – | –
12 | O=C(CN(c1cccc([N+](=O)[O-])c1)S(=O)(=O)c1cccc(F)c1)NO | 93 | 89 | 0.74 | 90 | – | – | – | – | – | 35
13 | O=C(CN(c1cccc([N+](=O)[O-])c1)S(=O)(=O)c1ccc(C(F)(F)F)cc1)NO | 87 | 93 | 9.57 | 90 | – | – | – | – | – | –
14 | O=C(CN(c1cccc([N+](=O)[O-])c1)S(=O)(=O)c1ccc(F)cc1)NO | 92 | 91 | 3.33 | 90 | – | – | – | – | – | –
